Source: BindingDB's records for doi:10.3109/14756366.2012.670806 (Jeju National University, 2013)

Target: T1, Polyphenol oxidase 1 (White button mushroom, UniProt Q00024)
T1 sequence (Q00024 whole entry): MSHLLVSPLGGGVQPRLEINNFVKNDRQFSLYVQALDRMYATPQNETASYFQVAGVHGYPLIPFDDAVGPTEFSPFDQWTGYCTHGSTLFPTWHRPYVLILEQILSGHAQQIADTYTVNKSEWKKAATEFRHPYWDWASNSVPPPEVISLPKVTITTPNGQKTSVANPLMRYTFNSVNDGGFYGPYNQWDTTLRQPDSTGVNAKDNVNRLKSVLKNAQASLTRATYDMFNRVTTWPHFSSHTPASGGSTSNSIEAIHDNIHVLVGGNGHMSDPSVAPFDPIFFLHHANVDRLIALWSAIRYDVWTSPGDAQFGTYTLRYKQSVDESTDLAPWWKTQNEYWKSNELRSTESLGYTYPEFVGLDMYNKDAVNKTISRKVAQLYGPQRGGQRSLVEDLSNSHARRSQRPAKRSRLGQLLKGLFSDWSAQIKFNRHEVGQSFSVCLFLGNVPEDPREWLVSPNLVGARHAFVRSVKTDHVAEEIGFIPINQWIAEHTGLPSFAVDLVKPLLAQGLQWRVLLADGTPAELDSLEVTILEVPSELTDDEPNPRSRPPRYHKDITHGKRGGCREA
Experiment: Tyrosinase Inhibition Assay
Conditions: pH 6.8; 37 °C
Description: Briefly, mushroom tyrosinase (1250 units/mL) and 2 mM L-tyrosine (0.07 mL) were added to a solution of phosphate buffer (0.1 M, pH 6.8, 0.09 mL) containing the test sample. The test mixture (0.2 mL) was incubated for 10 min at 37°C and the absorption due to the formation of dopachrome was monitored at 475 nm. The same mixture except for the plant extract was used as a control. Arbutin (hydroquinone-O-β-glucopyranoside) was used as a positive control. Each treatment was replicated three times.

OC[C@H]1O[C@@H](Oc2ccc(O)cc2)[C@H](O)[C@@H](O)[C@@H]1O [4-hydroxyphenyl beta-D-glucopyranoside]
IC50: 320 µM

CC1OC(Oc2c(-c3ccc(O)cc3)oc3cc(O)cc(O)c3c2=O)C(OC(=O)/C=C/c2ccc(O)cc2)C(OC(=O)/C=C/c2ccc(O)cc2)C1O (stereo not drawn) [Neolitsea aciculata extract, 5]
IC50: 67 µM

CC1OC(Oc2c(-c3ccc(O)cc3)oc3cc(O)cc(O)c3c2=O)C(OC(=O)/C=C/c2ccc(O)cc2)C(O)C1O (stereo not drawn) [Neolitsea aciculata extract, 6]
IC50: 80 µM
